Source: article PMC10303271, “Synthesis and Receptor Binding Studies of α5 GABAAR Selective Novel Imidazodiazepines Targeted for Psychiatric and Cognitive Disorders” (Molecules, 2023)

Legend:
[1] = target: kappa opioid receptors (KOR) (Homo sapiens, UniProt P41145); test: PDSP radioligand binding at KOR; conditions: for inhibition at 10 µM: 1.5 h, at 10,000 nM, N = 5, [3H]-U69593 0.83 nM, read-out: Primary Binding %KOR
Description: (§1) Opioid receptors are a family of inhibitory G-coupled protein receptors where opioids act as the ligand. The kappa opioid receptors (KOR), µ and δ opioid receptors (MOR and DOR), and nociception opioid receptor (NOP) fall under the family of opioids receptors. It has been reported that oxadiazole imidazodiazepines can mediate analgesic and anti-inflammatory properties mediated also by the κ opioid receptor (KOR). The binding at KOR is usually silent. The affinities of the test compounds for KOR, DOR, and MOR were determined using radioligand binding assays at a screening concentration of 10,000 nM in collaboration with the National Institute of Mental Health’s Psychoactive Drug Screening Program (PDSP), as mentioned before. Concentration-dependent experiments were conducted to determine Ki values for the compounds that exceeded more than 50% radioligand displacement in primary binding assays.
(§2) The NIMH PDSP assay protocol book [https://kidbdev.med.unc.edu/databases/PDSP%20Protocols%20II%202013-03-28.pdf accessed on 23 April 2023]. describes the protocols for primary and secondary radio-ligand binding assays. These assays were carried out in a final volume of 125 µL per well in the appropriate binding buffer.
(§3) The binding of a ligand to a receptor, ion channel, or transporter was determined in the […] of 10 µM of the appropriate reference compound. […] Plates were incubated in the dark for 90 min at rt, and the reactions were stopped by vacuum filtration onto 0.3% polyethyleneimine (PEI) soaked 96-well filter mats using a 96-well Filtermateharvester. This was followed by three washes with cold PBS buffer. Radioactivity was then counted on a Microbeta counter. Nonlinear regression was used to analyze the data with N = 6 replicates.

MOR = target: T1, MOR (Homo sapiens, UniProt P35372); test: PDSP radioligand binding at MOR; conditions: 1.5 h; at 10,000 nM; N = 5; [3H]-DAMGO 1.20 nM; read-out: Primary Binding %MOR
T1 construct: purchased NIMH Psychoactive Drug Screening Program (PDSP)
T1 sequence (P35372 whole entry): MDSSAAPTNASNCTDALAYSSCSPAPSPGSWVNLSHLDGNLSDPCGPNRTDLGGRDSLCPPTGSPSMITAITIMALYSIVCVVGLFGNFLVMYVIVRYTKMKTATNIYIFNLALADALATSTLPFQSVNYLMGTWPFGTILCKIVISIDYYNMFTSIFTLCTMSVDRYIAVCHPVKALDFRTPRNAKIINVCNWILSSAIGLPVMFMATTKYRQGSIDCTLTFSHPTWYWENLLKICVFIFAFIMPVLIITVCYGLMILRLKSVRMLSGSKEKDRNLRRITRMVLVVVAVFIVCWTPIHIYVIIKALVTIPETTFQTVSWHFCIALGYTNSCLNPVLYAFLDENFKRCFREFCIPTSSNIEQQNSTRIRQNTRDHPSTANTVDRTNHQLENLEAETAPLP
Description: as §1, §2, §3

DOR = target: T2, DOR (Homo sapiens, UniProt P41143); test: PDSP radioligand binding at DOR; conditions: at 10,000 nM; N = 5; [3H]-DADLE 2.69 nM; read-out: Primary Binding %DOR
T2 construct: purchased NIMH Psychoactive Drug Screening Program (PDSP)
T2 sequence (P41143 whole entry): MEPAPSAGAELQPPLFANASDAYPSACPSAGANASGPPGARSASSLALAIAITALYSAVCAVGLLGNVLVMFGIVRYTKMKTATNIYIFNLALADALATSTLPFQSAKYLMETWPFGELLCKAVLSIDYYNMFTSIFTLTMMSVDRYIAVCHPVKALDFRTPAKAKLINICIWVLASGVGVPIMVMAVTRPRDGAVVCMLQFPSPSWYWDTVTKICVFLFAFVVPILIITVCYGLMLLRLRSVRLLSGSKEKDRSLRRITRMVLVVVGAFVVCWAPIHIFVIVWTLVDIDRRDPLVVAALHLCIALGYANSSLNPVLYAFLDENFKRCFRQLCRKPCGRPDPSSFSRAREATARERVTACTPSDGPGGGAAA
Description: as §1, §2, §3

[2] = design: method as in PMID 35266641, PMID 36712569, doi:10.1016/j.euroneuro.2019.09.268; conditions: autism, antipsychotic activity, cognitive disorders; cited from earlier work

Sequence of kappa opioid receptors (KOR) (P41145 whole entry): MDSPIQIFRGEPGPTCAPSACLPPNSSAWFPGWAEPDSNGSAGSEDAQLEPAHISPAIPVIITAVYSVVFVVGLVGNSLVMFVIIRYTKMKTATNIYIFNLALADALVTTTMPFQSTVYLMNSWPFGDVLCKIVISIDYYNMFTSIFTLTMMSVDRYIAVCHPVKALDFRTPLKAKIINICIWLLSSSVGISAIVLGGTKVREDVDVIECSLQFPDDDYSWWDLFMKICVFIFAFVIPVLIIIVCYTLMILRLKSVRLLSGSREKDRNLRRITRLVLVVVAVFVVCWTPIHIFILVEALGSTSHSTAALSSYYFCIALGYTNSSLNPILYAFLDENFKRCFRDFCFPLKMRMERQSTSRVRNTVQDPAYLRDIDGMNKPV

Structure (SMILES)	Ki [1] [nM]	inhibition at 10 µM [1] [%]	inhibition at 10 µM (MOR) [%]	inhibition at 10 µM (DOR) [%]	activity in psychiatric disorders [2]
C[C@H]1N=C(c2ccccc2F)c2cc(Cl)ccc2-n2cnc(C(=O)N(C)C)c21 [Compound 32, (R)-8-Chloro-6-(2′-fluorophenyl)-N,N,4-trimethyl-4H-benzo[f]imidazo[1,5-a][1,4]diazepine-3-carboxamide]	731 ± 238	81.4 ± 7.52	11.2 ± 5.47	14.4 ± 7.98	–
CCc1noc(-c2ncn3c2[C@@H](C)N=C(c2ccccc2F)c2cc(C4CC4)ccc2-3)n1 [Compound 47]	248 ± 22.6	91.3 ± 3.06	25.1 ± 12.8	67.3 ± 7.84	–
C#Cc1ccc2c(c1)C(c1ccccc1F)=N[C@H](C)c1c(C(=O)NC)ncn1-2 [MP-III-022]	–	–	–	–	active in low doses
